Results from patent publication US6737383B1, “Herbicidal oxadiazolidines” (priority 1999, dated 2004).

Key:
sourgrass = assay: Test D sourgrass; type: in vivo, Trichachne insularis; details: Preemergence, 0 to 100 scale, 0 no injury, 100 complete control
Procedure, shortened: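 Herbicide screen in the greenhouse. A non-phytotoxic solvent mixture with surfactant carried the test chemical; in pre-emergence tests it went onto the soil of pots seeded no more than a day earlier. Injury was scored by eye 14 to 21 days after application, 0 to 100.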

sunflower = assay: Test E sunflower; type: in vivo, Helianthus annuus; details: Preemergence
scentless chamomile = assay: Test E scentless chamomile; type: in vivo, Matricaria inodora; details: Postemergence
Experimental: (§1) Compounds evaluated in this test were formulated in a non-phytotoxic solvent mixture which included a surfactant and applied to plants that were in the 1- to 4-leaf stage (postemergence application). A mixture of sandy loam soil and greenhouse potting mix in a 60:40 ratio was used for the postemergence test.
(§2) Plantings of these crops and weed species were adjusted to produce plants of appropriate size for the postemergence test. All plant species were grown using normal greenhouse practices. Crop and weed species include annual bluegrass (Poa annua), blackgrass (Alopecurus myosuroides), black nightshade (Solanum nigra), chickweed (Stellaria media), common poppy (Papaver rhoeas), deadnettle (Lamium amplexicaule), downy brome (Bromus tectorum), field violet (Viola arvensis), galium (Galium aparine), green foxtail (Setaria viridis), Italian ryegrass (Lolium multiflorum), jointed goatgrass (Aegilops cylindrica), kochia (Kochia scoparia), lambsquarters (Chenopodium album), littleseed canarygrass (Phalaris minor), rape (Brassica napus), redroot pigweed (Amaranthus retroflexus), Russian thistle (Salsola kali), scentless chamomile (Matricaria inodora), spring barley (Hordeum vulgare), sugar beet (Beta vulgaris), sunflower (Helianthus annuus), ivyleaf speedwell (Veronica hederaefolia), spring wheat (Triticum aestivum), winter wheat (Triticum aestivum), wild buckwheat (Polygonum convolvulus), wild mustard (Sinapis arvensis), wild oat (Avena fatua), windgrass (Apera spica-venti) and winter barley (Hordeum vulgare).
(§3) Treated plants and untreated controls were maintained in a greenhouse for approximately 21 to 28 days, after which all treated plants were compared to untreated controls and visually evaluated. […] A dash response (-) means no test result.

black nightshade [1] = assay: Test E black nightshade; type: in vivo, Solanum nigra; details: Preemergence
deadnettle = assay: Test E deadnettle; type: in vivo, Lamium amplexicaule; details: Preemergence
wild oat = assay: Test E wild oat; type: in vivo, Avena fatua; details: Postemergence
Procedure, shortened: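 For postemergence, plants at the 1- to 4-leaf stage, in a 60:40 mix of sandy loam and potting mix, treated with compound formulated in a surfactant-containing non-phytotoxic solvent. Visual assessment versus untreated controls followed roughly 21–28 days in the greenhouse.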

redroot pigweed = assay: Test E redroot pigweed; type: in vivo, Amaranthus retroflexus; details: Preemergence
annual bluegrass = assay: Test E annual bluegrass; type: in vivo, Poa annua; details: Postemergence
Experimental: as §1, §2, §3

common poppy = assay: Test E common poppy; type: in vivo, Papaver rhoeas; details: Postemergence; for Plant response rating, Comnion poppy: Rate 125 g/ha
Experimental: as §1, §2, §3

littleseed canarygrass = assay: Test E littleseed canarygrass; type: in vivo, Phalaris minor; details: Postemergence
Experimental: as §1, §2, §3

black nightshade [2] = assay: Test E black nightshade; type: in vivo, Solanum nigra; details: Postemergence
Experimental: as §1, §2, §3

surinam grass = assay: Test C postemergence surinam grass; type: in vivo, Brachiaria decumbens; details: 0 to 100 scale, 0 no effect, 100 complete control
Experimental: as §1, with “grown for various periods of time before treatment” for “in the 1- to 4-leaf stage”
(§4) Plantings of these crops and weed species were adjusted to produce plants of appropriate size for the postemergence test. All plant species were grown using normal greenhouse practices. Crop and weed species include arrowleaf sida (Sida rhombifolia), barnyardgrass (Echinochloa crus-galli), cocklebur (Xanthium strumarium), common ragweed (Ambrosia elatior), corn (Zea mays), cotton (Gossypium hirsutum), eastern black nightshade (Solanum ptycanthum), fall panicum (Panicum dichotomiflorum), field bindweed (Convolvulus arvensis), giant foxtail (Setaria faberii), hairy beggarticks (Bidens pilosa), ivyleaf morningglory (Ipomoea hederacea), johnsongrass (Sorghum halepense), ladysthumb smartweed (Polygonum persicaria), lambsquarters (Chenopodium album), large crabgrass (Digitaria sanguinalis), purple nutsedge (Cyperus rotundus), redroot pigweed (Amaranthus retroflexus), soybean (Glycine max), surinam grass (Brachiaria decumbens), velvetleaf (Abutilon theophrasti) and wild poinsettia (Euphorbia heterophylla).
(§5) Treated plants and untreated controls were maintained in a greenhouse for approximately 14, to 21 days, after which all treated plants were compared to untreated controls and visually evaluated. Plant response ratings, summarized in Table C, were based upon a 0 to 100 scale where 0 was no effect and 100 was complete control. A dash response (−) means no test result.

wild poinsettia = assay: Test C postemergence wild poinsettia; type: in vivo, Euphorbia heterophylla; details: 0 to 100 scale, 0 no effect, 100 complete control
Experimental: as §1, with “grown for various periods of time before treatment” for “in the 1- to 4-leaf stage”
as §4, §5

hairy beggarticks = assay: Test C postemergence hairy beggarticks; type: in vivo, Bidens pilosa; details: 0 to 100 scale, 0 no effect, 100 complete control
Experimental: as §1, with “grown for various periods of time before treatment” for “in the 1- to 4-leaf stage”
as §4, §5

soybean = assay: Test C postemergence soybean; type: in vivo, Glycine max; details: 0 to 100 scale, 0 no effect, 100 complete control
Experimental: as §1, with “grown for various periods of time before treatment” for “in the 1- to 4-leaf stage”
as §4, §5

ivyleaf morningglory = assay: Test C postemergence ivyleaf morningglory; type: in vivo, Ipomoea hederacea; details: 0 to 100 scale, 0 no effect, 100 complete control
Procedure, shortened: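 In this greenhouse assay, treated and untreated plants were kept for approximately 14 to 21 days following postemergence application, then rated by eye on a scale from 0 (no effect) to 100 (complete control).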

[3] = Rate 125 g/ha, 0 to 100 scale (0 no effect, 100 complete control)
[4] = Rate 500 g/ha, 0 to 100 scale where 0 is no effect and 100 is complete control
[5] = Rate 250 g/ha, 0 to 100 scale (0 no effect, 100 complete control)
[6] = Rate 500 g/ha, 0 to 100 scale, 0 no effect, 100 complete control
[7] = Rate 250 g/ha, 0 to 100 scale where 0 is no effect and 100 is complete control

Cc1cccc(C)c1-n1c(=O)on(C(=O)N(c2ccc(F)cc2)C(C)C)c1=O [Compound 18]
Plant response rating, Sourgrass (sourgrass; Rate 64 g/ha): 100

CC(C)N(C(=O)n1oc(=O)n(C(C)C)c1=O)c1ccc(Cl)cc1 [Compound 114]
Plant response rating, Sunflower (sunflower; [3]): 0
Plant response rating, Sunflower (sunflower; Rate 250 g/ha, 0 to 100 scale): 0
Plant response rating, Sunflower (sunflower; [4]): 5
Plant response rating, Scentless chamo (scentless chamomile; Rate 125 g/ha, 0 to 100 scale): 0
Plant response rating, Scentless chamo (scentless chamomile; [5]): 0
Plant response rating, Scentless chamo (scentless chamomile; [6]): 0
Plant response rating, Blk nightshade (black nightshade [1]; [3]): 20
Plant response rating, Blk nightshade (black nightshade [1]; Rate 250 g/ha, 0 to 100 scale): 60
Plant response rating, Blk nightshade (black nightshade [1]; [4]): 90
Plant response rating, Deadnettle (deadnettle; [3]): 20
Plant response rating, Deadnettle (deadnettle; Rate 250 g/ha, 0 to 100 scale): 20
Plant response rating, Deadnettle (deadnettle; [4]): 20
Plant response rating, Wild oat (wild oat; Rate 125 g/ha, 0 to 100 scale): 0
Plant response rating, Wild oat (wild oat; [5]): 0
Plant response rating, Wild oat (wild oat; [6]): 0
Plant response rating, Redroot pigweed (redroot pigweed; [3]): 50
Plant response rating, Redroot pigweed (redroot pigweed; Rate 250 g/ha, 0 to 100 scale): 65
Plant response rating, Redroot pigweed (redroot pigweed; [4]): 100
Plant response rating, Annual bluegras (annual bluegrass; Rate 125 g/ha, 0 to 100 scale): 0
Plant response rating, Annual bluegras (annual bluegrass; [5]): 30
Plant response rating, Annual bluegras (annual bluegrass; [6]): 60
Plant response rating, Comnion poppy (common poppy; 0 to 100 scale): 0
Plant response rating, Common poppy (common poppy; [5]): 10
Plant response rating, Common poppy (common poppy; [6]): 20
Plant response rating, LS canarygrass (littleseed canarygrass; Rate 125 g/ha, 0 to 100 scale): 0
Plant response rating, LS canarygrass (littleseed canarygrass; [5]): 30
Plant response rating, LS canarygrass (littleseed canarygrass; [6]): 60
Plant response rating, Blk nightshade (black nightshade [2]; Rate 125 g/ha, 0 to 100 scale): 50
Plant response rating, Blk nightshade (black nightshade [2]; [5]): 40
Plant response rating, Blk nightshade (black nightshade [2]; [6]): 80

CCn1c(=O)on(C(=O)N(c2ccccc2)C(C)C)c1=O [Compound 117]
Plant response rating, Surinam grass (surinam grass; Rate 140 g/ha): 0
Plant response rating, Surinam grass (surinam grass; Rate 280 g/ha): 0
Plant response rating, Surinam grass (surinam grass; Rate 560 g/ha): 40
Plant response rating, Surinam grass (surinam grass; Rate 1120 g/ha): 90
Plant response rating Wild poinsettia (wild poinsettia; Rate 140 g/ha): 0
Plant response rating Wild poinsettia (wild poinsettia; Rate 280 g/ha): 0
Plant response rating Wild poinsettia (wild poinsettia; Rate 560 g/ha): 0
Plant response rating Wild poinsettia (wild poinsettia; Rate 1120 g/ha): 0
Plant response rating H. beggarticks (hairy beggarticks; Rate 1120 g/ha): 0
Plant response rating, Soybean (soybean; Rate 140 g/ha): 10
Plant response rating, Soybean (soybean; Rate 280 g/ha): 35
Plant response rating, Soybean (soybean; Rate 560 g/ha): 40
Plant response rating, Soybean (soybean; Rate 1120 g/ha): 60
Plant response rating I. morningglory (ivyleaf morningglory; Rate 140 g/ha): 0
Plant response rating I. morningglory (ivyleaf morningglory; Rate 280 g/ha): 0
Plant response rating I. morningglory (ivyleaf morningglory; Rate 560 g/ha): 0
Plant response rating I. morningglory (ivyleaf morningglory; Rate 1120 g/ha): 0

CC(C)N(C(=O)n1oc(=O)n(C(C)C)c1=O)c1ccc(F)cc1 [Compound 131]
Plant response rating, Surinam grass (surinam grass; Rate 140 g/ha): 0
Plant response rating, Surinam grass (surinam grass; Rate 280 g/ha): 80
Plant response rating, Surinam grass (surinam grass; Rate 560 g/ha): 85
Plant response rating, Surinam grass (surinam grass; Rate 1120 g/ha): 90
Plant response rating, Sourgrass (sourgrass; Rate 16 g/ha): 90
Plant response rating, Sunflower (sunflower; [3]): 20
Sunflower plant response rating (0 to 100 scale) (sunflower; Rate 250 g/ha): 20
Plant response rating, Sunflower (sunflower; [4]): 20
Plant response rating Wild poinsettia (wild poinsettia; Rate 140 g/ha): 0
Plant response rating Wild poinsettia (wild poinsettia; Rate 280 g/ha): 10
Plant response rating Wild poinsettia (wild poinsettia; Rate 560 g/ha): 30
Plant response rating Wild poinsettia (wild poinsettia; Rate 1120 g/ha): 80
Plant response rating H. beggarticks (hairy beggarticks; Rate 140 g/ha): 0
Plant response rating H. beggarticks (hairy beggarticks; Rate 560 g/ha): 40
Plant response rating H. beggarticks (hairy beggarticks; Rate 1120 g/ha): 70
Plant response rating, Scentless chamo (scentless chamomile; Rate 62 g/ha, 0 to 100 scale): 55
Plant response rating, Scentless chamo (scentless chamomile; Rate 125 g/ha, 0 to 100 scale): 0
Plant response rating, Scentless chamo (scentless chamomile; [6]): 50
Scentless chamo plant response rating (scentless chamomile; [7]): 20
Plant response rating, Blk nightshade (black nightshade [1]; [3]): 70
Blk nightshade plant response rating (0 to 100 scale) (black nightshade [1]; Rate 250 g/ha): 85
Plant response rating, Blk nightshade (black nightshade [1]; [4]): 90
Plant response rating, Deadnettle (deadnettle; [3]): 30
Deadnettle plant response rating (0 to 100 scale) (deadnettle; Rate 250 g/ha): 60
Plant response rating, Deadnettle (deadnettle; [4]): 100
Plant response rating, Wild oat (wild oat; Rate 62 g/ha, 0 to 100 scale): 40
Plant response rating, Wild oat (wild oat; Rate 125 g/ha, 0 to 100 scale): 0
Plant response rating, Wild oat (wild oat; [6]): 70
Wild oat plant response rating (wild oat; [7]): 20
Plant response rating, Redroot pigweed (redroot pigweed; [3]): 100
Redroot pigweed plant response rating (0 to 100 scale) (redroot pigweed; Rate 250 g/ha): 100
Plant response rating, Redroot pigweed (redroot pigweed; [4]): 95
Plant response rating, Soybean (soybean; Rate 140 g/ha): 20
Plant response rating, Soybean (soybean; Rate 280 g/ha): 25
Plant response rating, Soybean (soybean; Rate 560 g/ha): 30
Plant response rating, Soybean (soybean; Rate 1120 g/ha): 45
Plant response rating I. morningglory (ivyleaf morningglory; Rate 140 g/ha): 0
Plant response rating I. morningglory (ivyleaf morningglory; Rate 280 g/ha): 0
Plant response rating I. morningglory (ivyleaf morningglory; Rate 560 g/ha): 20
Plant response rating I. morningglory (ivyleaf morningglory; Rate 1120 g/ha): 50
Plant response rating, Annual bluegras (annual bluegrass; Rate 62 g/ha, 0 to 100 scale): 55
Plant response rating, Annual bluegras (annual bluegrass; Rate 125 g/ha, 0 to 100 scale): 40
Plant response rating, Annual bluegras (annual bluegrass; [6]): 70
Annual bluegras plant response rating (annual bluegrass; [7]): 40
Plant response rating, Common poppy (common poppy; Rate 62 g/ha, 0 to 100 scale): 65
Plant response rating, Comnion poppy (common poppy; 0 to 100 scale): 0
Plant response rating, Common poppy (common poppy; [6]): 0
Common poppy plant response rating (common poppy; [7]): 0
Plant response rating, LS canarygrass (littleseed canarygrass; Rate 62 g/ha, 0 to 100 scale): 50
Plant response rating, LS canarygrass (littleseed canarygrass; Rate 125 g/ha, 0 to 100 scale): 0
Plant response rating, LS canarygrass (littleseed canarygrass; [6]): 50
LS canarygrass plant response rating (littleseed canarygrass; [7]): 20
Plant response rating, Blk nightshade (black nightshade [2]; Rate 62 g/ha, 0 to 100 scale): 50
Plant response rating, Blk nightshade (black nightshade [2]; Rate 125 g/ha, 0 to 100 scale): 50
Plant response rating, Blk nightshade (black nightshade [2]; [6]): 70
Blk nightshade plant response rating (black nightshade [2]; [7]): 60
